Results published in US8410163B2, “Substituted 4-amino-5-benzoyl-2-(phenylamino)thiophene-3-carbonitriles and substituted 4-amino-5-benzoyl-2-(phenylamino)thiophene-3-carboxamides as tubulin polymerization inhibitors” (Telik, Inc., priority 2009, dated 2013).
Read-outs that look alike come from different tables or passages of the source.

Key:
[1] = system: A549 (human lung adenocarcinoma); assay: Cytotoxicity assay (CellTiter-Glo), A549; type: cell-based; details: 72 h, A549 cells, three days culture, rounded to 1 significant figure
Procedure: (§1) The cell lines A549 (human lung adenocarcinoma), OVCAR-3 (human ovarian carcinoma), HL60 (human promyelocytic leukemia), DLD1 (human colon adenocarcinoma) and HCT116 (human colon carcinoma) were obtained from the American Type Culture Collection, Manassas, Va., U.S.A. All products were used in accordance with manufacturer's directions. The histone phosphorylation (p-H3) assay was conducted in duplicate and the cytotoxicity assays were conducted in triplicate, in each case with solvent control.
(§2) Log-phase cells were trypsinized, collected by centrifugation, and resuspended in a small volume of fresh medium, and the density of viable cells was determined following Trypan Blue staining. Cells were diluted in fresh media, the test compounds (concentrations between 0.1 μM and 200 μM, dissolved in DMSO, 50 μL) added immediately after dilution to achieve a final DMSO concentration of 0.5%, then the suspensions added at 150 μL/well to 96-well plates, and incubated overnight to allow attachment in the case of adherent cells. The cells were cultured for three days (about three doubling times). The cells were then collected by centrifugation, and 100 μL of the culture supernatant was replaced by the CellTiter-Glo reagent. After incubation for 15 minutes at room temperature, the plate was read with a luminometer. […] The table gives cytotoxicity IC50s in μM, rounded to 1 significant figure.

[2] = system: OVCAR-3 (human ovarian carcinoma); assay: Cytotoxicity assay (CellTiter-Glo), OVCAR-3; type: cell-based; details: 72 h, OVCAR-3 cells, three days culture, rounded to 1 significant figure
Procedure: as §1, §2

[3] = system: HL60 (human promyelocytic leukemia); assay: Cytotoxicity assay (CellTiter-Glo), HL-60; type: cell-based; details: 72 h, HL-60 cells, three days culture, rounded to 1 significant figure
Procedure: as §1, §2

[4] = system: DLD1 (human colon adenocarcinoma); assay: Cytotoxicity assay (CellTiter-Glo), DLD1; type: cell-based; details: DLD-1, 72 h, DLD1 cells, three days culture, rounded to 1 significant figure
Procedure: as §1, §2

[5] = system: HCT116 (human colon carcinoma); assay: Cytotoxicity assay (CellTiter-Glo), HCT116; type: cell-based; details: HCT-116, 72 h, HCT116 cells, three days culture, rounded to 1 significant figure
Procedure: as §1, §2

p-H3 in A549 cells = assay: Histone phosphorylation (p-H3) assay; type: cell-based; details: Homo sapiens, 4 hr incubation, dot-blot
Procedure: as §1
Log phase A549 cells were seeded in a 96-well plate and allowed to attach overnight. The test compounds were diluted in DMSO (8 concentrations with serial 3-fold dilutions) and added to the cells (0.5% DMSO final concentration), and the cells incubated for 4 hr. The cells were then washed three times with cold phosphate-buffered saline (PBS), and lysis buffer was added. After 30 min shaking at 4° C. and centrifugation, the supernatants were transferred to a nitrocellulose membrane by a “dot-blot” apparatus. After washing the wells, the membrane was processed for Western blot. Detection of p-H3 and β-actin was performed on the same membrane with primary rabbit anti-p-H3 and mouse anti-β-actin antibodies followed by secondary goat anti-rabbit IRDye800 and goat anti-mouse AlexaFluor 680 antibodies. The membranes were scanned on an Odyssey scanner.

tubulin = assay: Inhibition of tubulin polymerization, cell-free fluorescence assay; type: biochemical
[6] = system: HL60 (human promyelocytic leukemia) xenograft; assay: HL60 xenograft assay, oral administration; type: in vivo; details: Mus musculus, HL-60, po, nu/nu mice, read-out: inhibition of tumor growth compared to vehicle
Procedure: (§3) Male athymic nu/nu mice, 6-8 weeks old (about 20 g), were implanted subcutaneously in the right fore flank with about 1×10^7 cells of the HL60 (human promyelocytic leukemia) line that had been grown in antibiotic-free medium for at least two passages. About 6 days after tumor implantation, when the tumor weight was about 50-250 mg, the mice were assigned to treatment groups. Test compounds were suspended at 20 mg/mL in 0.55 wt. % aqueous carboxymethylcellulose. Groups of mice were treated with compounds 2A, 9A, and 12A at 200 mg/Kg by gavage once/day on days 1-5 and 8-10 from the start of treatment, with vehicle control. Tumor growth inhibition was measured on the last day of treatment.
The experiment was conducted generally as described in In vivo Example 1. Groups of mice were treated with compounds 5A, 6A, 7A, 8A, and 10A at 200 mg/Kg by gavage once/day on days 1-5 and 8-10 from the start of treatment, with vehicle control. Tumor growth inhibition was measured the day after the last day of treatment.

[7] = system: HCT116 (human colon carcinoma) xenograft; assay: HCT116 xenograft assay, oral administration; type: in vivo; details: nu/nu mice, 200 mg/Kg by gavage once/day days 1-5 and 8-12, measured 2 days after the last day of treatment
Procedure: as §3, with “the HCT116” for “the HL60”, “(human colon carcinoma)” for “(human promyelocytic leukemia)”, “About 14-21” for “About 6”, “tumor transplantation,” for “tumor implantation,”, “and 8-12” for “and 8-10”, “measured 2 days after” for “measured on”

[8] = system: tubulin polymerization in A549 cells; assay: Inhibition of tubulin polymerization in A549 cells by immunomicroscopy and cell fractionation; type: cell-based, human
[9] = system: P388 and P388/ADR (doxorubicin-resistant) cells; assay: Cross-resistance, cytotoxicity in P388 and P388/ADR cells; type: cell-based, mouse; details: cytotoxicity in P388/ADR (doxorubicin-resistant) versus P388 cells
Procedure: Compounds 2A, 9A, and 12A were tested for cross-resistance in the P388 (mouse leukemia) cell line, by assaying its cytotoxicity in both P388 and P388/ADR (doxorubicin-resistant) cells. […] Several of the more cytotoxic compounds of formula A were tested and found not to be substrates for P-glycoprotein, an efflux pump commonly associated with multidrug-resistance in cancer cells.

[10] = 200 mg/Kg by gavage once/day days 1-5 and 8-10, measured on the last day of treatment (In vivo Example 1)
[11] = 200 mg/Kg by gavage once/day days 1-5 and 8-10, measured the day after the last day of treatment (In vivo Example 3)

SMILES	IC50 [1]	IC50 [2]	IC50 [3]	IC50 [4]	IC50 [5]	other results
COc1ccc(Nc2sc(C(=O)c3ccc(Cl)cc3)c(N)c2C(N)=O)cc1 [Compound 1A, 4-amino-5-(4-chlorobenzoyl)-2-[(4-methoxyphenyl)amino]thiophene-3-carboxamide]	0.01 µM	0.01 µM	0.01 µM	0.007 µM	0.01 µM	
COc1ccc(Nc2sc(C(=O)c3ccc(Cl)cc3)c(N)c2C#N)cc1 [Compound 2A]	0.01 µM	0.02 µM	0.01 µM	0.006 µM	0.01 µM	IC50 (p-H3 in A549 cells): 0.02 µM; inhibition of tubulin polymerization (cell-free) (tubulin): inhibition of tubulin polymerization; inhibition in vivo at 200 mg/kg [6, 10]: 46%; inhibition of tumor growth compared to vehicle [7]: 35%
CCOc1ccc(Nc2sc(C(=O)c3ccc(Cl)cc3)c(N)c2C#N)cc1 [Compound 4A]	0.02 µM	0.03 µM	0.04 µM	0.03 µM	0.09 µM	
COc1ccc(Nc2sc(C(=O)c3ccc(Cl)cc3)c(N)c2C#N)cc1OC [Compound 5A]	0.02 µM	0.02 µM	0.02 µM	0.02 µM	0.02 µM	inhibition in vivo at 200 mg/kg [6, 11]: 45%
CCOc1ccc(Nc2sc(C(=O)c3ccc(OC)cc3OC)c(N)c2C#N)cc1 [Compound 6A, 4-amino-5-(2,4-dimethoxybenzoyl)-2-[(4-ethoxyphenyl)amino]thiophene-3-carbonitrile]	0.03 µM		0.05 µM		0.03 µM	inhibition in vivo at 200 mg/kg [6, 11]: 89%
COc1ccc(Nc2sc(C(=O)c3ccc(OC)cc3OC)c(N)c2C#N)cc1 [Compound 7A, 4-amino-5-(2,4-dimethoxybenzoyl)-2-[(4-methoxyphenyl)amino]thiophene-3-carbonitrile]	0.03 µM		0.02 µM		0.01 µM	IC50 ([8]; read-out: IC50, inhibition of tubulin polymerization in A549 cells): 0.009 µM; inhibition in vivo at 200 mg/kg [6, 11]: 45%
COc1ccc(Nc2sc(C(=O)c3ccc(OC)cc3)c(N)c2C(N)=O)cc1 [Compound 8A]	0.04 µM	0.01 µM	0.03 µM	0.007 µM		inhibition in vivo at 200 mg/kg [6, 11]: 10%
CCN(CC)c1ccc(C(=O)c2sc(Nc3ccc4c(c3)OCO4)c(C#N)c2N)cc1 [Compound 9A]	0.04 µM	0.02 µM	0.04 µM	0.02 µM	0.04 µM	inhibition of tubulin polymerization (cell-free) (tubulin): inhibition of tubulin polymerization; inhibition in vivo at 200 mg/kg [6, 10]: 43%; inhibition of tumor growth compared to vehicle [7]: 36%
COc1ccc(C(=O)c2sc(Nc3ccc4c(c3)OCO4)c(C#N)c2N)cc1 [Compound 10A]	0.04 µM	0.04 µM	0.04 µM	0.03 µM		inhibition in vivo at 200 mg/kg [6, 11]: 67%
COc1ccc(Nc2sc(C(=O)c3ccc(OC)cc3)c(N)c2C#N)cc1 [Compound 12A]	0.05 µM	0.03 µM	0.04 µM	0.04 µM	0.04 µM	inhibition of tubulin polymerization (cell-free) (tubulin): inhibition of tubulin polymerization; inhibition in vivo at 200 mg/kg [6, 10]: 66%; inhibition of tumor growth compared to vehicle [7]: 46%
Cc1ccc(Nc2sc(C(=O)c3ccc(Cl)cc3)c(N)c2C#N)cc1 [Compound 14A]	0.1 µM		0.07 µM		0.08 µM	inhibition of tubulin polymerization (cell-free) (tubulin): inhibition of tubulin polymerization
CCc1ccc(Nc2sc(C(=O)c3ccc(Cl)cc3)c(N)c2C#N)cc1 [Compound 15A, 4-amino-5-(4-chlorobenzoyl)-2-[(4-ethylphenyl)amino]thiophene-3-carbonitrile]	0.1 µM		0.09 µM			IC50 (p-H3 in A549 cells): 0.5 µM
COc1ccccc1C(=O)c1sc(Nc2ccc3c(c2)OCO3)c(C#N)c1N [Compound 21A]	0.2 µM					inhibition of tubulin polymerization (cell-free) (tubulin): inhibition of tubulin polymerization
N#Cc1ccc(Nc2sc(C(=O)c3ccc(Cl)cc3)c(N)c2C#N)cc1 [Compound 40A]	2 µM					activity in tubulin polymerization assay in A549 cells [8]: inactive
COc1cc2c(c(OC)c1OC)-c1ccc(OC)c(=O)cc1[C@@H](NC(C)=O)CC2 [colchicine]						resistance ratio [9]: 70 fold
COc1cccc2c1C(=O)c1c(O)c3c(c(O)c1C2=O)C[C@@](O)(C(=O)CO)C[C@@H]3O[C@H]1C[C@H](N)[C@H](O)[C@H](C)O1 [doxorubicin]						resistance ratio [9]: 260 fold
CC[C@]1(O)C[C@@H]2CN(CCc3c([nH]c4ccccc34)[C@@](C(=O)OC)(c3cc4c(cc3OC)N(C)[C@H]3[C@@](O)(C(=O)OC)[C@H](OC(C)=O)[C@]5(CC)C=CCN6CC[C@]43[C@@H]65)C2)C1 [vinblastine]						resistance ratio [9]: 50 fold
